In patent US20260224588A1, “BENZODIAZEPINONE-DERIVED INHIBITORS OF EGFR AND HER2” (The Research Foundation for the State University of New York, priority 2023, published 2026):

Key:
Assay in all cases: KINOMEscan
Format in all cases: binding
Details in all cases: 1 μM of compound 4; read-out: POC
[1] = molecular target: MINK (Homo sapiens, UniProt Q8N4C8)
[2] = molecular target: T1, GRK7 (Homo sapiens, UniProt Q8WTQ7)
T1 construct: purchased Eurofins DiscoverX Corporation

[3] = molecular target: T2, GRK2 (Homo sapiens, UniProt P25098)
T2 construct: purchased Eurofins DiscoverX Corporation

[4] = molecular target: T3, RIPK4 (Homo sapiens, UniProt P57078)
T3 construct: purchased Eurofins DiscoverX Corporation (KINOMEscan screening service)
T3 sequence (P57078 whole entry): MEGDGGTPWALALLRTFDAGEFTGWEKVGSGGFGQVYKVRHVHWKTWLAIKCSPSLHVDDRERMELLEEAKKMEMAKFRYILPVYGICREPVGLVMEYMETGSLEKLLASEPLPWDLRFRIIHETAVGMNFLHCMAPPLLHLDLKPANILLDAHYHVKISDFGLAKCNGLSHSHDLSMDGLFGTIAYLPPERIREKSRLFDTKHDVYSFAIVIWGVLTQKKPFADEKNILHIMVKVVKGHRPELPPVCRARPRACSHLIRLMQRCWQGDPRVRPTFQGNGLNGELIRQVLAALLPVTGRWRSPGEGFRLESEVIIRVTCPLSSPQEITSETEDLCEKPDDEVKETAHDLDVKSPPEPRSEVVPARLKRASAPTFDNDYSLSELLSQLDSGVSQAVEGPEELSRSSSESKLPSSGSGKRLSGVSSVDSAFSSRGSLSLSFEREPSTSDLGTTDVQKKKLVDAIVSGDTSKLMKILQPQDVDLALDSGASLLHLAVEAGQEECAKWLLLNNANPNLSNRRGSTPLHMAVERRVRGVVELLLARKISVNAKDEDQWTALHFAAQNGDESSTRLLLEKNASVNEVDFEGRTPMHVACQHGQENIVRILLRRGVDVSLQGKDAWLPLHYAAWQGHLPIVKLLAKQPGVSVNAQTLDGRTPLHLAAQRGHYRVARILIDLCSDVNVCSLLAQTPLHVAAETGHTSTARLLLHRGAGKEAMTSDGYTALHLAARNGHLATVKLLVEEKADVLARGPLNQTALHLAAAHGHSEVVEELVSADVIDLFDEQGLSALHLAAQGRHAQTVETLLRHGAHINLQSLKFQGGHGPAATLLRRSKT

[5] = molecular target: EGFR(L858R) (Homo sapiens, UniProt P00533, L858R); parameters: purchased Eurofins DiscoverX (KINOMEscan service)
EGFR(L858R), sequence (P00533 25-1210 L858R): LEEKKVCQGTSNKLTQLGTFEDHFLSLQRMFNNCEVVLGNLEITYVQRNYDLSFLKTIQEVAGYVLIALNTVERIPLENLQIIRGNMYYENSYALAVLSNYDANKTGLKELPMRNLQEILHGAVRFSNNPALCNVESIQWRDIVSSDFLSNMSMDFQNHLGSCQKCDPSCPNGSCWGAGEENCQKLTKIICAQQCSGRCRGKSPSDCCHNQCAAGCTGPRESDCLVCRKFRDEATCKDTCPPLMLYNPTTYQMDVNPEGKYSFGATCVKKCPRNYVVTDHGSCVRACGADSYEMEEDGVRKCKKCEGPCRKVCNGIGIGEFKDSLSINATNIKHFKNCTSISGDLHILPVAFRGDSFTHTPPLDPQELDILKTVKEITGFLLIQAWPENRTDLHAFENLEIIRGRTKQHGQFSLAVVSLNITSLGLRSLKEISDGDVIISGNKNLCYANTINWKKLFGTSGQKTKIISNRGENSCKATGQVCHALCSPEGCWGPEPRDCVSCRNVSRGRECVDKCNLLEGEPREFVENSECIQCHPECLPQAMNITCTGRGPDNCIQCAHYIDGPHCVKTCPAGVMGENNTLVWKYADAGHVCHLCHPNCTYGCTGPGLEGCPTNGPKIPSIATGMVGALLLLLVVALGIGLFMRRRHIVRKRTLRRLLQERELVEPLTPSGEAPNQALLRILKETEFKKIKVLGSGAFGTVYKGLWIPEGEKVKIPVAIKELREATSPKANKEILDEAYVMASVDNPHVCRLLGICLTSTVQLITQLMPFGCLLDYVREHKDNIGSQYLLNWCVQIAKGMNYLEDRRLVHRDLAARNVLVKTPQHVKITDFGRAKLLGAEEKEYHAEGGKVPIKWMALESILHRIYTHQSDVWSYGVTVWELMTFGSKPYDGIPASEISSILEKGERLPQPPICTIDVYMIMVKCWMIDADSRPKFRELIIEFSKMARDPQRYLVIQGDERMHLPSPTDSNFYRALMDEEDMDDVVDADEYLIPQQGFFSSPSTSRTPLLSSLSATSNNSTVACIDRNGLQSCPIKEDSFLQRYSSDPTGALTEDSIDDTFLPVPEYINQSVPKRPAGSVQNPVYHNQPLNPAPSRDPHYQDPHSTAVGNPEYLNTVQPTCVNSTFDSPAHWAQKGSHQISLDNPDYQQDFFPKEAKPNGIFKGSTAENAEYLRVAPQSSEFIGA

[6] = molecular target: PIK3CA(E542K) (Homo sapiens, UniProt P42336, E542K)
PIK3CA(E542K), sequence (P42336 whole entry E542K): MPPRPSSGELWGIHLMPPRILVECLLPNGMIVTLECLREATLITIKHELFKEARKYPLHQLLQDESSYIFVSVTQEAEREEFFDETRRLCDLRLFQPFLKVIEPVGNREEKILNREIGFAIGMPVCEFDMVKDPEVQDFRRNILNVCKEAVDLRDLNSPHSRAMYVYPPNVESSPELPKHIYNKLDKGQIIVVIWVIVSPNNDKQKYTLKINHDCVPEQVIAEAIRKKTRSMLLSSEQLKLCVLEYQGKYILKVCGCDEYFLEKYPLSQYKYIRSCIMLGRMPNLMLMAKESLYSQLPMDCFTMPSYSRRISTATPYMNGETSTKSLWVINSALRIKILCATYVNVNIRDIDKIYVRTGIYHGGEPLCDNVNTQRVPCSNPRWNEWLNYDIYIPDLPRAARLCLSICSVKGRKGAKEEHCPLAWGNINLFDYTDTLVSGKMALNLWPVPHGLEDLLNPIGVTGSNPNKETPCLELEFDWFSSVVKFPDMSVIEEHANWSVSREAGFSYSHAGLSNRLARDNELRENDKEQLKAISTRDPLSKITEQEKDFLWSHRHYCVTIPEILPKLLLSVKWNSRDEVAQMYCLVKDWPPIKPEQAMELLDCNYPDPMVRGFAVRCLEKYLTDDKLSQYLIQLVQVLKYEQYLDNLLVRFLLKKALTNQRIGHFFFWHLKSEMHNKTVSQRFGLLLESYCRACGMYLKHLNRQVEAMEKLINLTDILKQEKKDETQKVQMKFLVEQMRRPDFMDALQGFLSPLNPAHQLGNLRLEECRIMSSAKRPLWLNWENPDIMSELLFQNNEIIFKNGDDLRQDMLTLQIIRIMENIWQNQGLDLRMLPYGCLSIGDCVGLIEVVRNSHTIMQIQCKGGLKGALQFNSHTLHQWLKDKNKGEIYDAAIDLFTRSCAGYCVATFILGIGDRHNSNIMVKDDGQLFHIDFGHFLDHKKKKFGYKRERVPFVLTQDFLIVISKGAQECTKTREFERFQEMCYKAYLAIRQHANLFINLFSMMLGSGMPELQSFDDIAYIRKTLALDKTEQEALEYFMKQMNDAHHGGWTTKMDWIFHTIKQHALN

[7] = molecular target: T4, FLT3(D835H) (Homo sapiens, UniProt P36888, D835H)
T4 construct: purchased Eurofins DiscoverX Corporation

[8] = molecular target: T5, ABL1(M351T)-phosphorylated (Homo sapiens, UniProt P00519, M351T)
T5 construct: purchased Eurofins DiscoverX Corporation

[9] = molecular target: T6, STK36 (Homo sapiens, UniProt Q9NRP7)
T6 construct: purchased Eurofins DiscoverX (KINOMEscan service)

[10] = molecular target: PIK3CA(E545A) (Homo sapiens, UniProt P42336, E545A)
PIK3CA(E545A), sequence (P42336 whole entry E545A): as the sequence (P42336 whole entry E542K) above, with K542E, E545A counted along it

[11] = molecular target: T7, TXK (Homo sapiens, UniProt P42681)
T7 construct: purchased Eurofins DiscoverX

[12] = molecular target: MKK7 (Homo sapiens, UniProt O14733)
[13] = molecular target: AKT1 (Homo sapiens, UniProt P31749)
[14] = molecular target: T8, ERBB2 (Homo sapiens, UniProt P04626)
T8 construct: purchased Eurofins DiscoverX Corporation

[15] = molecular target: DYRK2 (Homo sapiens, UniProt Q92630)
[16] = molecular target: KIT-autoinhibited (Homo sapiens, UniProt P10721)
[17] = molecular target: CSNK2A1 (Homo sapiens, UniProt P68400)
CSNK2A1, sequence (P68400 whole entry): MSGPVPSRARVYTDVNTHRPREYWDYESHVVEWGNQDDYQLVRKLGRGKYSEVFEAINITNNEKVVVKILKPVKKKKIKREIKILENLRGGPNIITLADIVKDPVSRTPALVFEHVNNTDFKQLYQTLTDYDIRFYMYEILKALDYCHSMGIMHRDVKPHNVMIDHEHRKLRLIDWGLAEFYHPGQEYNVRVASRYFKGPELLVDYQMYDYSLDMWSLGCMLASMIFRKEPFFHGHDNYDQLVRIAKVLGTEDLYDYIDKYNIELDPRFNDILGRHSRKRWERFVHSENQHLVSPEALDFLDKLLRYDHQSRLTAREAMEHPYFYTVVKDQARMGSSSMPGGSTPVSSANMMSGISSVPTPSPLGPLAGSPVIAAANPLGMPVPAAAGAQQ

[18] = molecular target: ACVRL1 (Homo sapiens, UniProt P37023)
[19] = molecular target: DCAMKL3 (Homo sapiens, UniProt Q9C098)
[20] = molecular target: DRAK1 (Homo sapiens, UniProt Q9UEE5)
[21] = molecular target: CTK (Homo sapiens, UniProt P42679)
[22] = molecular target: PIP5K1C (Homo sapiens, UniProt O60331)
[23] = molecular target: MAP3K15 (Homo sapiens, UniProt Q6ZN16)
[24] = molecular target: T9, TYRO3 (Homo sapiens, UniProt Q06418)
T9 construct: purchased Eurofins DiscoverX
T9 sequence (Q06418 41-890): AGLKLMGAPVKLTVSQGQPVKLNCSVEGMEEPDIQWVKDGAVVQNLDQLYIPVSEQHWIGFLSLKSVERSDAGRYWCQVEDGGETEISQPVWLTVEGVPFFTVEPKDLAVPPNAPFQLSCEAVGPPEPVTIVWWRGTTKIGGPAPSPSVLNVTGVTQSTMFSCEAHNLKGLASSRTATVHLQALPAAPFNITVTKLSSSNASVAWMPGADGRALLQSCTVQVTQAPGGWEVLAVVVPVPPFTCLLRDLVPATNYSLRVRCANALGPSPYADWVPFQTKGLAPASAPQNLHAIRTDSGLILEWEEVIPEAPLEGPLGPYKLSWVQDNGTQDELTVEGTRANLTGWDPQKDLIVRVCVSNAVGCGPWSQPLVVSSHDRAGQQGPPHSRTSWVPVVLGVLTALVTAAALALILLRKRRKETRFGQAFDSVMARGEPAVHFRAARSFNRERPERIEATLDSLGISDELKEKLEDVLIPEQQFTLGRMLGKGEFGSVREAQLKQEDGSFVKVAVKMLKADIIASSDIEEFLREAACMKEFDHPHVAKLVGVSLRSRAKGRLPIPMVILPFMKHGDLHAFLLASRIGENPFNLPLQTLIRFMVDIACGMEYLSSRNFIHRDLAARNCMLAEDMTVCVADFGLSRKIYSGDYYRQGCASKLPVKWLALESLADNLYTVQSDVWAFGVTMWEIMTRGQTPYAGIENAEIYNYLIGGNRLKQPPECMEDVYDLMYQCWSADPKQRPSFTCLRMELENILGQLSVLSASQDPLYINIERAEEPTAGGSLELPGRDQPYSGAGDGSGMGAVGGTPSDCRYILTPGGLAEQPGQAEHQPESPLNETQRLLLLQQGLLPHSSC

[25] = molecular target: NEK10 (Homo sapiens, UniProt Q6ZWH5)
[26] = molecular target: NDR1 (Homo sapiens, UniProt Q15208)
[27] = molecular target: CAMK1B (Homo sapiens, UniProt Q6P2M8)
[28] = molecular target: MET (Homo sapiens, UniProt P08581)
[29] = molecular target: MLK3 (Homo sapiens, UniProt Q16584)
[30] = molecular target: T10, ROS1 (Homo sapiens, UniProt P08922)
T10 construct: purchased Eurofins DiscoverX Corporation (KINOMEscan screening service)

[31] = molecular target: T11, WEE2 (Homo sapiens, UniProt P0C1S8)
T11 construct: purchased Eurofins DiscoverX

[32] = molecular target: T12, SRPK1 (Homo sapiens, UniProt Q96SB4)
T12 construct: purchased Eurofins DiscoverX (KINOMEscan service)

[33] = molecular target: T13, EPHA5 (Homo sapiens, UniProt P54756)
T13 construct: purchased Eurofins DiscoverX (KINOMEscan service)

[34] = molecular target: JAK1(JH2domain-pseudokinase) (Homo sapiens, UniProt P23458)
[35] = molecular target: T14, FLT3-autoinhibited (Homo sapiens, UniProt P36888)
T14 construct: purchased Eurofins DiscoverX Corporation

[36] = molecular target: T15, TLK2 (Homo sapiens, UniProt Q86UE8)
T15 construct: purchased Eurofins DiscoverX Corporation

[37] = molecular target: MEK2 (Homo sapiens, UniProt P36507)
[38] = molecular target: CDK2 (Homo sapiens, UniProt P24941)
[39] = molecular target: KIT(V559D + T670I) (Homo sapiens, UniProt P10721, T670I/V559D)

T1 sequence (Q8WTQ7 whole entry): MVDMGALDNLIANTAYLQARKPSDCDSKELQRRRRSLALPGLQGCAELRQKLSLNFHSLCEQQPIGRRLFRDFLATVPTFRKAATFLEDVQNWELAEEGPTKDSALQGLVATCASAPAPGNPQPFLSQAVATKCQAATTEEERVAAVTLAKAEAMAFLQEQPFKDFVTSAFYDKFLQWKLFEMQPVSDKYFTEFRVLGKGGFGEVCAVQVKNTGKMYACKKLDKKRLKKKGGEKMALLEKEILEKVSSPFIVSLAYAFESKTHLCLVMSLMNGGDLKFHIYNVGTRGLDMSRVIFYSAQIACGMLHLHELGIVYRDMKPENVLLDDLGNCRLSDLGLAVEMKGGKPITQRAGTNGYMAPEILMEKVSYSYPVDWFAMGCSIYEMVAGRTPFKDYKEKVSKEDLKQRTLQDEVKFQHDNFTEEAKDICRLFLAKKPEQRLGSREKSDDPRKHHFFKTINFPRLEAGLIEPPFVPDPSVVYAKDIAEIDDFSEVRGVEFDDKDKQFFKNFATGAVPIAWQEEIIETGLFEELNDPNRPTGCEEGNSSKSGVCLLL

Question: How did the remaining binding at 1 µM [1] turn out when C=CC(=O)Nc1ccc(OC)c(Nc2cc(-c3[nH]c(CC)nc3-c3cccc(NC(=O)c4cccc5c4NC(=O)c4ccccc4N5)c3)ccn2)c1 [Compound 4, N-(3-(5-(2-((5-Acrylamido-2-methoxyphenyl)amino)pyridin-4-yl)-2-ethyl-1H-imidazol-4-yl)phenyl)-11-oxo-10,11-dihydro-5H-dibenzo[b,e][1,4]diazepine-9-carboxamide] was run?
Answer: Its remaining binding at 1 µM is 10%.

Question: And the remaining binding at 1 µM [2]?
Answer: Its remaining binding at 1 µM is 99%.

Question: And the remaining binding at 1 µM [3]?
Answer: The remaining binding at 1 µM was 100%.

Question: What about the remaining binding at 1 µM [4] of the same compound?
Answer: Its remaining binding at 1 µM is 100%.

Question: What about the remaining binding at 1 µM [5] of the same compound?
Answer: Its remaining binding at 1 µM is 5%.

Question: And the remaining binding at 1 µM [6]?
Answer: The remaining binding at 1 µM was 100%.

Question: And the remaining binding at 1 µM [7]?
Answer: Its remaining binding at 1 µM is 92%.

Question: And the remaining binding at 1 µM [8]?
Answer: Its remaining binding at 1 µM is 67%.

Question: And the remaining binding at 1 µM [9]?
Answer: Its remaining binding at 1 µM is 30%.

Question: What about the remaining binding at 1 µM [10] of the same compound?
Answer: Its remaining binding at 1 µM is 100%.

Question: And the remaining binding at 1 µM [11]?
Answer: The remaining binding at 1 µM was 42%.

Question: And the remaining binding at 1 µM [12]?
Answer: The remaining binding at 1 µM was 31%.

Question: And the remaining binding at 1 µM [13]?
Answer: The remaining binding at 1 µM was 89%.

Question: What about the remaining binding at 1 µM [14] of the same compound?
Answer: Its remaining binding at 1 µM is 18%.

Question: And the remaining binding at 1 µM [15]?
Answer: Its remaining binding at 1 µM is 75%.

Question: And the remaining binding at 1 µM [16]?
Answer: The remaining binding at 1 µM was 100%.

Question: What about the remaining binding at 1 µM [17] of the same compound?
Answer: The remaining binding at 1 µM was 100%.

Question: And the remaining binding at 1 µM [18]?
Answer: The remaining binding at 1 µM was 75%.

Question: And the remaining binding at 1 µM [19]?
Answer: Its remaining binding at 1 µM is 86%.

Question: What about the remaining binding at 1 µM [20] of the same compound?
Answer: Its remaining binding at 1 µM is 84%.

Question: What about the remaining binding at 1 µM [21] of the same compound?
Answer: The remaining binding at 1 µM was 54%.

Question: And the remaining binding at 1 µM [22]?
Answer: The remaining binding at 1 µM was 78%.

Question: And the remaining binding at 1 µM [23]?
Answer: Its remaining binding at 1 µM is 74%.

Question: And the remaining binding at 1 µM [24]?
Answer: The remaining binding at 1 µM was 32%.

Question: What about the remaining binding at 1 µM [25] of the same compound?
Answer: The remaining binding at 1 µM was 86%.

Question: What about the remaining binding at 1 µM [26] of the same compound?
Answer: Its remaining binding at 1 µM is 73%.

Question: And the remaining binding at 1 µM [27]?
Answer: Its remaining binding at 1 µM is 94%.

Question: And the remaining binding at 1 µM [28]?
Answer: The remaining binding at 1 µM was 69%.

Question: What about the remaining binding at 1 µM [29] of the same compound?
Answer: Its remaining binding at 1 µM is 97%.

Question: And the remaining binding at 1 µM [30]?
Answer: Its remaining binding at 1 µM is 80%.

Question: What about the remaining binding at 1 µM [31] of the same compound?
Answer: Its remaining binding at 1 µM is 98%.

Question: What about the remaining binding at 1 µM [32] of the same compound?
Answer: The remaining binding at 1 µM was 100%.

Question: And the remaining binding at 1 µM [33]?
Answer: Its remaining binding at 1 µM is 100%.

Question: And the remaining binding at 1 µM [34]?
Answer: Its remaining binding at 1 µM is 83%.

Question: What about the remaining binding at 1 µM [35] of the same compound?
Answer: Its remaining binding at 1 µM is 100%.

Question: What about the remaining binding at 1 µM [36] of the same compound?
Answer: The remaining binding at 1 µM was 87%.

Question: And the remaining binding at 1 µM [37]?
Answer: The remaining binding at 1 µM was 100%.

Question: And the remaining binding at 1 µM [38]?
Answer: The remaining binding at 1 µM was 95%.

Question: What about the remaining binding at 1 µM [39] of the same compound?
Answer: Its remaining binding at 1 µM is 95%.
